Common to all, as to type: cell-based, human
One experiment has as its system 20S proteasome. Put plainly: 20S Proteasome Activity Assay in treated cell lysates. The note with it: A549 cells treated 4 h. Here is the method:
Cells were treated with complex 3 (4 h), and then cells were lysed in 50 mM Tris-HCl pH 7.6, 0.1% Triton X-100, 0.9% NaCl to obtain the Proteasome activity (EC 3.4.25.1). The proteasome activity was tested using the 20S Proteasome Activity Assay kit APT280 (Merck Millipore) and a computer-interfaced GeniusPlus microplate reader (Tecan Trading AG, Switzerland). The activity was normalized to the protein concentration and expressed as a percentage of control (untreated cells).

The next experiment relates to Bcl-2. The experiment can be described thus: Bcl-2 expression, flow cytometry. The settings on record: A549, 72 h. Here is the method:
2.0×10^5 A549 cells were seeded in 6-well plates in a complete medium and treated with the complex 3. Assay results were detected by flow cytometry on a BD FACSCanto II flow cytometer. Data were analyzed using BD FACSDiva v.8.0.1 software (BD Biosciences) unless otherwise indicated. Tumor cells were treated for 72 h with complex 3, then stained for 15 minutes with FITC Annexin-V (Thermo Fisher Scientific) and 7AAD (BD Pharmingen, Milan, Italy). Activated caspase-3,7 was detected using the CaspaTag Caspase-3,7 assay (Merck Millipore) after an incubation of 24 h with complex 3. For B-cell lymphoma/leukemia-2 protein (Bcl-2) and Bcl-2 associated x protein (Bax) analysis, cells were treated for 72 h with C3, then fixed and permeabilized (FIX & PERM Cell Fixation & Cell Permeabilization Kit, Life Technologies). […] The distribution of cells in different cell cycle phases was quantified using ModFit LT 4.0 software (Verity Software House, Topsham, ME, USA) (See: Sulaiman, A. A. A.; Casagrande, N.; Borghese, C.; Corona, G.; Isab, A. A.; Ahmad, S.; Aldinucci, D.; Altaf M. Design, Synthesis, and Preclinical Activity in Ovarian Cancer Models of New Phosphanegold(I)—N-Heterocyclic Carbene Complexes. J Med Chem 2022, 65, 14424-14440, which is incorporated herein by reference in its entirety). […]

The next experiment has as its system A549-MCTSs. The experiment can be described thus: 3D-A549-MCTS viability (PrestoBlue). The note with it: 72 h, PrestoBlue, poly-HEMA coated wells. The method, then:
To obtain multiple spheroids, 10.0×10^4 A549 cells were seeded in non-adherent conditions on poly-HEMA coated 96 wells (final volume, 200 μL) for four days. After drug treatment (72 h), the cell viability was determined using PrestoBlue Cell Viability Reagent (Thermo Fisher Scientific, Frederick, MD, USA) (See: Casagrande, N.; Celegato, M.; Borghese, C.; Mongiat, M.; Colombatti, A.; Aldinucci, D. Preclinical Activity of the Liposomal Cisplatin Lipoplatin in Ovarian Cancer. Clin Cancer Res 2014, 20, 5496-5506, which is incorporated herein by reference in its entirety).
3D-MCTSs are a model for in vitro drug testing (See: Zanoni, M.; Piccinini, F.; Arienti, C.; Zamagni, A.; Santi, S.; Polico, R.; Bevilacqua, A.; Tesei, A. 3D Tumor Spheroid Models for in Vitro Therapeutic Screening: A Systematic Approach to Enhance the Biological Relevance of Data Obtained. Sci Rep 2016, 6, 19103, which is incorporated herein by reference in its entirety) and to test drug tissue penetration. Thus, the effects of complex 3 in A549-MCTSs were determined by cultivating tumor cells in non-adherent conditions on poly-HEMA coated wells. […] Representative micro-photographs of A549-MCTSs treated with complex 3 (0.3-5 μM) and with cisplatin (15-250 μM) are shown in FIG. 9C.

For `CC(C)c1cccc(C(C)C)c1-n1ccn(-c2c(C(C)C)cccc2C(C)C)[c]1=[Au-][P+](CCNCC[P+]([Au-]=[c]1n(-c2c(C(C)C)cccc2C(C)C)ccn1-c1c(C(C)C)cccc1C(C)C)(C1CCCCC1)C1CCCCC1)(C1CCCCC1)C1CCCCC1` [Complex 3, [(Au(IPr))2(C28H24P2)](PF6)2], the 20S proteasome activity entry with 20S proteasome is “inhibited in a dose-dependent manner”. In the experiment with Bcl-2, the “anti-apoptotic BCL-2 expression” value is “down-regulated”. The molecule further displayed a half-maximal inhibitory concentration (IC50) with A549-MCTSs of 950 nM.

(Values after patent publication US20250222009A1, “DINUCLEAR GOLD(I) COMPLEXES FOR TREATING CANCER” (KING FAHD UNIVERSITY OF PETROLEUM AND MINERALS, priority 2024, published 2025).)
